This is an account of results in publication PMC6271639, “Lycodine-Type Alkaloids from Lycopodiastrum casuarinoides and Their Acetylcholinesterase Inhibitory Activity” (Molecules, 2014).

In assay [1] the target is T1, AChE (EC3.1.1.7, Sigma product no. C2888) (Electrophorus electricus, UniProt O42275).
T1 construct: purchased Sigma (St. Louis, MO, USA) C2888
In words: AChE inhibition by modified Ellman's method in 96-well microplates. The format is biochemical. To be noted: for AChE inhibitory activity in words: qualitative statement. As for the experimental part:
The isolated lycodine-type alkaloids 1–14 were evaluated for their AChE inhibiting activity by Ellman’s method in 96-well microplates.
AChE (EC3.1.1.7, Sigma product no. C2888), acetylthiocholine iodide (ATCI), 5,5'-dithiobis [2-nitrobenzoic acid] (DTNB) and huperzine A (purity 98%) were purchased from Sigma (St. Louis, MO, USA).
Briefly, 0.1 M sodium phosphate buffer (140 µL, pH = 8.0), sample solution (20 µL) and enzyme solution (15 µL) were mixed and incubated at 4 °C for 20 min. Ten µL of 0.01 M DTNB was added and the reaction was then started by adding 0.075 M ATCI (10 µL). […] Blanks were set up by adding 20 µL buffer solutions instead of 20 µL sample solution. Experiment control was set up by adding 15 µL buffer solutions instead of 15 µL enzyme solution in order to deduct the sample background. All reactions were carried out thrice.
On the technique in general: Ellman's reagent forms a yellow product with free thiols.

A further assay concerns AChE. To be noted: previously reported ref 8, 13, 21; cited from earlier work.

T1 sequence (O42275 24-633): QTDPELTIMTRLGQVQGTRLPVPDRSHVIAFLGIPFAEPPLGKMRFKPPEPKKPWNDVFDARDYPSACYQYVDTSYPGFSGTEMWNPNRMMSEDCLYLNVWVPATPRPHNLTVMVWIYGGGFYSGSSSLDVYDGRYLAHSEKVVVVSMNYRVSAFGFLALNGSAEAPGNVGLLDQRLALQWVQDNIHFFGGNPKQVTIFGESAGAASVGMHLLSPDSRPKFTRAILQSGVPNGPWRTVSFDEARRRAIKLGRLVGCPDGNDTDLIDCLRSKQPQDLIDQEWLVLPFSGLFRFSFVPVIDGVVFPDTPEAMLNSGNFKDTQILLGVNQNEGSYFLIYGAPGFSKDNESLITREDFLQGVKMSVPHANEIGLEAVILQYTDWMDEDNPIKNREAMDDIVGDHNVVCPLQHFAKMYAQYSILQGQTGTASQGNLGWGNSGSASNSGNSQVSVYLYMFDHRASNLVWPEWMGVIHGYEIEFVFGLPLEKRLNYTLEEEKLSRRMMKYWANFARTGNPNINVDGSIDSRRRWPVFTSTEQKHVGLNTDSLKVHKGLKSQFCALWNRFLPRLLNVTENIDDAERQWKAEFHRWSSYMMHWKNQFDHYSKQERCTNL

Broadly, the IC50 is the concentration that inhibits the measured activity by half. `CC1=C[C@H]2Cc3[nH]c(=O)ccc3[C@]3(C1)NCCC[C@H]23` [Compound 9, huperzine B]: in assay [1], the IC50 amounted to 20.2 ± 1.3 µM and the “AChE inhibitory activity in words” value is “significant inhibitory activity”. For the same molecule, the IC50 with AChE is 19.3 µM.

As for `C=CC1C2C=C(CO)CC1(NC)c1ccc(=O)[nH]c1C2` (stereo not drawn) [Compound 10, casuarinine E], the IC50 in assay [1] was above 250 µM.

As for `C=C[C@@H]1[C@H]2C=C(CO)C[C@]1(N)c1ccc(=O)[nH]c1C2` [Compound 13, lycoparin C], the IC50 in assay [1] was 23.9 ± 2.2 µM; with AChE it was 25 µM. In assay [1], the “AChE inhibitory activity in words” value is listed as “significant inhibitory activity”.

As to `C=CC1C2C=C(C)CC1(N(C)C)c1ccc(=O)[nH]c1C2` (stereo not drawn) [Compound 5, huperzinine], the “AChE inhibitory activity in words” value in assay [1] is “very weak activity”.

Regarding `C=CC1C2C=C(C)CC1(NC)c1ccc(=O)[nH]c1C2` (stereo not drawn) [Compound 7, N-demethylhuperzinine], the IC50 in assay [1] came out at 1.9 ± 0.2 µM.
